SMILES strings stand for the structures. Peptide text beside a SMILES is read from it. * marks the point of attachment. Cbz = O=C(OCc1ccccc1)*

Broadly, the logP is a log measure of how a compound divides between an organic and an aqueous phase. Consider `O=C1/C(=C2\Nc3ccccc3C2=O)Nc2ccccc21`, for which the logP was found to be 3.72.

As to `CCCCC(=O)N(C)c1ccc(S(=O)(=O)N(C)C)cc1`, the logP was found to be 1.63.

Compound `CSC(=O)Nc1ccccc1` gave a logP of 2.4.

`CC(C)(C)C(=O)Nc1ccc(Cl)c(Cl)c1` displayed a logP of 3.88.

`CCCCC1OC(=O)c2cc(N(CCO)CCO)ccc21` (centres undefined) had a logP of 1.34.

As for `CC1(C)OCCO1`, the log partition coefficient (logP) came out at 0.46.

As for `FC(F)(F)CN(CC(F)(F)F)c1ccccc1`, the logP was 3.69.

Take `c1ccc(Cc2nn[nH]n2)cc1`: the logP stood at 1.36.

`CC(=O)Nc1cccc(I)c1` displayed a log partition coefficient (logP) of 2.64.

`c1cc2n(n1)CCN2`: the logP was -0.25.

For the compound `N[C@@H](CSC(c1ccccc1)(c1ccccc1)c1ccccc1)C(=O)O`, the logP was 2.06.

In the case of `CCCCCC(=O)N(C)c1ccc(S(=O)(=O)N(C)C)cc1`, the logP amounted to 2.16.

Take `CCOC(=O)CCC(=O)N(C)c1cccc(S(=O)(=O)N(C)C)c1`: the logP was determined as 0.84.

Turning to `CN(C)/N=N/c1ccccc1C(=O)NCC#N`, the logP came out at 1.79.

With `O=CC(CO)OC(C=O)n1cnc2c(O)ncnc21` (centres undefined), the lipophilicity (logP) is -2.11.

For the compound `CS(=O)(=O)F`, the lipophilicity (logP) was determined as 0.55.

In the case of `O=C(OCCNC(=O)C(F)(F)F)c1ccccc1`, the logP stood at 2.25.

In the case of `O=C(Nc1ccc(Cl)c(Cl)c1)c1ccccc1`, the logP was 4.42.

Compound `CCC(C)N=C=S` (centres undefined) displayed a logP of 2.81.

Compound `CC(Cl)C(=O)N(CC(=O)Nc1ccccc1)c1ccccc1` (centres undefined) yielded a logP of 3.02.

In the case of `CNC(=S)NC12CC3CC(CC(C3)C1)C2`, the logP worked out at 2.67.

The compound `COc1cc(C)c2c(c1OC)-c1ccc(SC)c(=O)cc1C(NC1OCC(O)C(O)C1O)CC2` (centres undefined) came in with a logP of 1.4.

`CSc1cccc(NC(C)=O)c1`: the logP was 2.14.

`CC(=O)Nc1ccc2nccnc2c1` showed a logP of 1.

As to `O=C(CCl)Nc1ccc(Cl)c(Cl)c1`, the logP is 3.29.

Regarding `CCOC(=O)CC(=O)C=Cc1cccc(C)c1`, the logP came out at 2.8.

`CCOC(=O)C(=Cc1ccc(OC)c(OC)c1)C(=O)OCC`: the logP came to 2.89.

`Cc1oc2ccccc2c(=O)c1C` displayed a log partition coefficient (logP) of 2.31.

`CN(C)N=CCCc1ccccc1` showed a logP of 2.05.

Turning to `C[N+](C)(C)Cc1cccc(C(F)(F)F)c1.[Br-]`, the logP was -1.35.

`O=C([O-])c1cc2ccccc2cc1O.[Na+]` came in with a logP of 0.17.

Turning to `O=[N+]([O-])c1ccc(/C=C/c2cccc(CO)n2)o1`, the logP was 1.37.

Take `c1ccc(CSc2nnc[nH]2)cc1`: the log partition coefficient (logP) stood at 1.45.

As for `C[n+]1c2cc(N)ccc2cc2ccc(N)cc21.[Cl-]`, the logP is -1.78.

For the compound `CN(C)C(=S)NCc1ccccc1`, the logP came out at 1.59.

`CC(C)S(=O)(=O)n1c(N)nc2ccc(/C(=N/O)c3ccccc3)cc21` came in with a logP of 3.1.

The compound `O=C1CN=C(c2ccc[nH]2)c2cc(Cl)ccc2N1` returned a logP of 2.59.

In the case of `CCC1(c2ccccc2)NC(=O)NC1=O` (centres undefined), the logP turned out to be 1.53.

Compound `COc1cc(C=NO)ccc1OCCOC(=O)c1cccc(Cl)c1` had a log partition coefficient (logP) of 3.94.

Compound `Cc1ccc(S(=O)(=O)Oc2ccccc2C(=O)N(C)C)cc1` showed a logP of 2.01.

In turn, `O=C(Nc1ccccc1)c1ccc(C(=O)Nc2ccccc2)cc1` had a logP of 3.72.

The compound `NC(=O)N=[N+]([O-])c1ccccc1` registered a logP of 0.58.

`CN/C(=N\C#N)NCCSCc1csc(N=C(N)N)n1` yielded a logP of 0.68.

`CC(=O)Nc1ccc2c(c1)S(=O)(=O)c1ccccc1C2=O` registered a logP of 2.35.

For `N#CN=Nc1ccccc1`, the logP was 2.3.

The compound `CCCC1CC(C(=O)NC(C(C)O)C2OC(SC)C(O)C(O)C2O)N(CC)C1` (centres undefined) yielded a lipophilicity (logP) of 1.02.

In turn, `CCCCNc1c(C)n(C)c(=O)n(-c2ccccc2)c1=O` gave a logP of 1.69.

For the compound `N#CCC(=O)Nc1ccc(Cl)c(Cl)c1`, the logP was 2.72.

As to `CCCc1c(OCCCCc2nnn[nH]2)ccc(C(C)=O)c1O`, the lipophilicity (logP) came to 3.82.

`O=C1c2ccccc2C(=O)C1(O)O` showed a lipophilicity (logP) of 0.67.

Turning to `CC(=O)Nc1cccc(OCc2cccc(N3C(N)=NC(N)=NC3(C)C)c2)c1`, the logP was 1.15.

`CC(=O)Nc1ccc(Oc2ccccc2)cc1` had a logP of 3.13.

`CN(C)CCC1CN(C)C(=S)c2cccnc2O1` (centres undefined) came in with a logP of 1.08.

Regarding `C=CCn1c(=O)c(N(C)C)c(C)n(-c2ccccc2)c1=O`, the logP was found to be 1.98.

As to `CC(C)Cn1c(=O)n(C)c(=O)c2[nH]cnc21`, the logP is 1.15.

`CC(O)COc1cccc2oc(C(=O)O)cc(=O)c12` (centres undefined): the logP turned out to be 1.32.

Consider `O=C(O)c1ccc[nH]1`, for which the logP is 0.85.

In turn, `OCCOCCN1CCN(CCCN2c3ccccc3Sc3ccc(C(F)(F)F)cc32)CC1` registered a logP of 4.49.

Consider `S=c1cc[nH]cc1`, for which the log partition coefficient (logP) was found to be 0.2.

Consider `CC(C)(C)[N+]([O-])=NC#N`, for which the logP is 1.4.

`COc1cc(C=NO)ccc1OCCOC(=O)c1ccc(Cl)cc1` gave a logP of 3.92.

As to `Cc1c(N(C)C)c(=O)[nH]c(=O)n1-c1ccccc1`, the logP was 1.4.

`CCCC1CNC(C(=O)NC(C(C)O)C2OC(SC)C(O)C(O)C2O)C1` (centres undefined): the logP came to 0.04.

`CC(C)C(NC(=O)OCc1ccccc1)C(=O)NC(Cc1ccc(O)cc1)C(=O)O` (stereo not drawn) (Cbz-Val-Tyr-OH; configuration not given here) yielded a logP of 2.43.

Take `COc1ccccc1C=CC(=O)OCCOc1ccc(C=O)cc1OC`: the logP is 3.65.

In the case of `COc1cccc(OC)n1`, the logP is 2.3.

Regarding `Nc1ccc(S(=O)(=O)[O-])c2ccccc12.[Na+]`, the lipophilicity (logP) is -2.34.

Compound `CSC(=O)Nc1ccc(Cl)c(Cl)c1` gave a logP of 4.23.

`c1ccn2nnnc2c1`: the logP was -0.09.

For `CN=C=S`, the logP amounted to 0.94.

With `O=C(Nc1ccc(Cl)c(Cl)c1)C1CCCCC1`, the logP is 4.72.

Regarding `CC(C)(C)/[N+]([O-])=C/c1ccccc1`, the logP was determined as 1.26.

Take `Cc1[nH]c(=O)[nH]c(=O)c1N(CCF)CCCl`: the logP is 0.85.

With `CCC(C)NC(=O)C(=Cc1ccccc1)Sc1ccccc1` (centres undefined), the logP stood at 4.36.

`CC(=O)Nc1ccc(CN(C)N=Nc2ccc(C(=O)O)cc2)cc1` yielded a logP of 3.35.

`CC(C)CC(CC(C)C)OC(=O)c1ccc(NC(=O)N(C)C)cc1Cl` came in with a logP of 5.15.

`CC(=O)OC1CCCC(NC(=O)N(CCF)N=O)C1` (centres undefined) yielded a logP of 1.33.

`O=C(CN(C(=O)CCl)c1ccccc1)Nc1ccccc1`: the log partition coefficient (logP) was 2.32.

Compound `CC(=O)Nc1ccccc1C#N` registered a logP of 0.57.

With `CN(Cc1ccccc1)N=Nc1ccc(C(=O)O)cc1`, the logP was 4.04.

As to `CCCCCC1CNC(C(=O)NC(C(C)Cl)C2OC(SC)C(O)C(O)C2O)C1` (centres undefined), the logP came to 2.74.

Turning to `COC1OC(COC(C)=O)C(OC(C)=O)C(NC(=O)N(CCCl)N=O)C1OC(C)=O` (centres undefined), the logP stood at 0.67.

Compound `COc1cc(C=O)ccc1OCCO` came in with a logP of 0.58.

For the compound `CC(=O)OCC1OC(NC(=O)N(CCCl)N=O)C(OC(C)=O)C(OC(C)=O)C1OC(C)=O` (centres undefined), the logP amounted to 1.04.

Take `CC(=O)NN=CCCc1ccccc1`: the logP stood at 1.8.

`CCOC(CP(=O)(OCC)OCC)OCC` registered a logP of 0.69.

In turn, `c1ccc(CSc2cnn[nH]2)cc1` displayed a logP of 2.65.

On to `Cc1ccc(Cc2c[nH]c(NCCCCc3ccc(Br)cc3C)nc2=O)cn1`, for which the log partition coefficient (logP) amounted to 3.61.

Regarding `O=NN(CCCl)C(=O)Nc1ccc(Cl)cc1`, the logP amounted to 3.16.

As for `O=NN1CCCCC1=O`, the logP is -1.05.

The compound `CC(=O)OC1OC(C)C(OC(C)=O)C(OC(C)=O)C1NC(=O)N(CCCl)N=O` (centres undefined) came in with a log partition coefficient (logP) of 1.32.

As to `Cn1nnnc1SCc1ccccc1`, the logP is 1.63.

In turn, `CC(=O)Nc1ccc2c(=O)c(C)c(C)oc2c1[N+](=O)[O-]` had a logP of 1.61.

As for `COC1OC(CNC(=O)N(C)N=O)C(O)C(O)C1O` (centres undefined), the logP was -1.57.

`CCN(CC)c1c(C)n(-c2ccccc2)c(=O)n(C)c1=O` showed a logP of 2.19.

Turning to `CC(=O)Nc1ccccc1NC(C)=O`, the logP was -0.03.

`CNc1cccc2ccccc12` showed a logP of 2.88.

`CC(=O)Nc1cccc(C#N)c1` gave a logP of 1.2.

`COc1cccc(OC)c1OC` gave a logP of 1.53.

The compound `CC(C)C(=O)Nc1ccc(Cl)c(Cl)c1` yielded a logP of 3.72.

The compound `CCOC(CCC#N)OCC` registered a logP of 0.75.

The compound `CC(C)=NO` showed a logP of 0.12.

The compound `O=[N+]([O-])c1ccc(C(F)(F)F)cc1` displayed a logP of 2.55.

Take `COc1ccc(C(C)=O)c(N)c1`: the logP came to 1.76.

As to `CNC(=N[N+](=O)[O-])NCCSCc1nc[nH]c1C`, the logP is 0.18.

For `O=C(O)c1ccco1`, the lipophilicity (logP) came to 0.64.

For the compound `CC(=O)Nc1ccc(C(F)(F)F)cc1`, the logP was found to be 2.52.

Consider `O=C(O)c1ccccc1-c1ccccc1`, for which the logP stood at 2.89.

`CN(C(=O)CCO)c1ccc(S(=O)(=O)N(C)C)cc1` came in with a logP of -0.26.

The compound `CC(=O)Nc1ccc2oc(C)c(C)c(=O)c2c1` yielded a logP of 1.79.

`CCOC(=O)CON=Cc1ccc(OCCOC(=O)c2ccccc2OC)c(OC)c1` came in with a logP of 3.27.

Turning to `CCOC(=O)CC(=O)C=Cc1ccc(C)cc1`, the logP was found to be 2.63.

Consider `COc1cccc2c1C(=O)c1c(O)c3c(c(O)c1C2=O)CC(O)(C(=O)CO)CC3O` (centres undefined), for which the logP amounted to 2.74.

Take `CC(=O)OCCC(=O)N(C)c1ccc(S(=O)(=O)N(C)C)cc1`: the logP is 0.26.

Compound `CCOC(=O)c1cncn1C(C)c1ccccc1` (centres undefined) registered a logP of 3.05.

In turn, `COCCN(N=Nc1[nH]cnc1C(N)=O)C(C)(C)C` gave a logP of 1.14.

In turn, `COc1cc(C=NO)ccc1OCCOC(=O)COc1ccccc1` displayed a logP of 2.1.

Regarding `COc1nnccc1N(C)C`, the logP came out at 0.9.

Compound `CC(C)(NC(=O)N(CCCl)N=O)C(=O)O` yielded a logP of 1.74.

Take `S=C(Nc1ccccc1)c1ccccc1`: the logP was 3.03.

In the case of `CC(=O)NCCC(=O)N(C)c1ccc(S(=O)(=O)N(C)C)cc1`, the logP is -0.35.

For the compound `CCCOCCC(=O)N(C)c1ccc(S(=O)(=O)N(C)C)cc1`, the log partition coefficient (logP) came to 1.26.

`CCCCCCC1OC(=O)c2cc(N)ccc21` (centres undefined) gave a logP of 3.65.

Regarding `CC(=O)Nc1ccc(C#N)cc1`, the logP was 1.37.

(Values after the OPERA property sets (Mansouri et al. 2018).)
